Source: patent US20240182406A1, “COMPOUNDS AS SOLUBLE EPOXIDE HYDROLASE INHIBITORS” (UNIVERSITAT DE BARCELONA, priority 2021, published 2024)
Marks after values point to notes of the source that are not given here.

Key:
[1] = test system: GFAP; assay: Western blot of hippocampus, neuroinflammation marker GFAP (5×FAD mice); type: in vivo, mouse; conditions: 5×FAD male mice, 5 mg/kg, 4 weeks, Arbitrary Units, control as 100%
Text: 5×FAD (tg6799) is an early-onset mouse transgenic model which overexpress mutant human APP(695) with the Swedish (K670N, M671L), Florida (I716V) and London (V717I) Familial Alzheimer's Disease (FAD) mutations along with human PS1 harbouring two FAD mutations (M146L and L286V). The Tg6799 line used is the original hybrid B6SJL background, and this hybrid B6SJL strain is used as a control of healthy animals. The mouse Thy1 promoter regulates both transgenes to drive overexpression in the brain. 5×FAD mice recapitulate major features of AD amyloid pathology and is a useful model of intraneuronal Abeta-42 induced neurodegeneration with amyloid increase brain content and amyloid plaque formation and tau hyperphosphorylation (J Neurosci. 2006, 26(40), 10129-10140).
The test compound was dissolved in 1.8% hydroxypropyl-beta-cyclodextrin and concentration in water was calculated according to the weekly animal consumption to reach the precise daily dose. A freshly made weekly replaces the drinking solution. The amount of water that the animals drink was monitored weekly, by the cage, and drug concentration was adjusted every week to reach the precise dose. […]
Afterwards, membranes were washed and incubated with secondary antibodies for 1 h at room temperature. […] Immunodetection of GADPH routinely monitored protein loading. […]

[2] = test system: CD1 mice; assay: Seizure assay (pentylenetetrazole, PTZ test); type: in vivo, mouse
Method: Test compounds were dissolved in 20% hydroxypropyl-beta-cyclodextrin and concentration was calculated according to the animal weigh to reach the precise dose. Animals were housed in standard care facilities with a 12 hours light-dark cycle with free access to water and food.
To investigate the ability of compounds to cross the blood-brain barrier (BBB), a standard acute test involving the administration of pro-convulsant pentylenetetrazole (PTZ) was employed [Inceoglu et al, PLoS ONE, 2013, 8(12), e80922; WO 2015/148954 A1]. In the test, PTZ was administered at 85 mg/Kg by subcutaneous route, time to onset of first clonic seizure, average of clonic seizures, tonic seizure latency and lethality were monitored for 30 min. Vehicles or compounds were administered by gavage at 5 mg/kg 1 h prior to pro-convulsant.

[3] = 5 mg/kg by gavage 1 h prior to PTZ 85 mg/Kg s.c., monitored 30 min

**Q.** Which results are given for `O=C(NC12CC3CC(Cl)(CC(C1)c1ccccc13)C2)N[C@H]1CC[C@H](Oc2ccc(C(=O)O)cc2)CC1` [Example 2, 4-[((1r,4r)-4-(3-(9-chloro-5,6,8,9,10,11-hexahydro-7H-5,9:7,11-dimethanobenzo[9]annulen-7-yl)ureido)cyclohexyl)oxy]benzoic acid]?
**A.** GFAP protein levels ([1]; listed as Cpd. Ex. 2): 125.85 ± 9.21*^; GFAP protein levels ([1]; listed as compound of example 2): significant diminution in the protein levels; Average clonic seizure [2, 3]: 1.25; Mean time to clonic seizure latency [2, 3]: 1006.5 s; Protected from tonic/total (Mortality) [2, 3]: 6/6****; Mean time to tonic seizure ([2]; 5 mg/kg by gavage 1 h prior to PTZ 85 mg/Kg s.c., animals without tonic seizure within 30 min excluded): 0.00 s; Mean time to tonic seizure in seconds ([2]; 5 mg/kg by gavage 1 h prior to PTZ 85 mg/Kg s.c., animals without tonic seizure within 30 min excluded, listed as compound of Example 2): delay onset of tonic seizures; protection from convulsions and associated lethality ([2]; PTZ test, 5 mg/kg by gavage): protect mice from convulsions and associated lethality
